Laboratory results: patent EP4691468A1, “PHARMACEUTICAL COMPOSITION FOR TREATING INFLAMMATORY BOWEL DISEASE” (EA Pharma Co., Ltd., priority 2023, dated 2024)

Experiments:
[1] = Phase 1 single-dose administration study: plasma concentration of Compound (2) by LC/MS/MS; conditions: for Average Plasma Concentrations of Compound (2) after Single-Dose Administration: oral; for Judgment Trough Value / Plasma Concentration Trough Value: Measured Value, Single, Once
Procedure: A phase 1 clinical trial was conducted to evaluate the safety, tolerability, and pharmacokinetics of Compound (1) when orally administered to healthy adult males.
This clinical trial was a single-center, randomized, double-blind, placebo-controlled, single and multiple ascending dose study with the primary objective of evaluating the safety and tolerability of Compound (1) when orally administered to healthy adult males.
The subjects in each cohort consisted of 8 people, of which 6 were assigned to Compound (1) and 2 were assigned to placebo, and they were administered the drug.
The plasma concentration of Compound (2) was measured using a validated measurement method. Specifically, plasma was separated from collected blood and processed, and then the plasma concentration was measured by an LC/MS/MS apparatus.
Compound (1) was orally administered once to 6 healthy adult males per dose and dosage form at doses of 6, 20, 100, 200, and 400 mg in the form of hard capsules (CAP), liquid self-emulsifying drug delivery system (L-SEDDS), or soft capsule self-emulsifying drug delivery system (C-SEDDS).

[2] = PK Simulation Analysis 2 by superposition method (200 mg twice daily); parameters: species or system human; conditions: day 10 of repeated administration
Procedure: The plasma concentration of Compound (2) on day 10 of repeated administration at 200 mg twice daily (every 12 hours) was predicted using the superposition method implemented in the Nonparametric Superposition (NPS) tool of the analysis software Phoenix WinNonlin, applying the results of once-daily administration at 200 mg (Certara L.P.) (Fig. 6). Table 6: Predicted Plasma Concentration (ng/mL) of Compound (2) on Day 10 of Repeated Administration Twice Daily

Average Plasma Concentrations of Compound (2) after Single-Dose Administration ([1]; Compound (1) 200 mg C-SEDDS, Time 6 h): 5.91 ng/mL
Average Plasma Concentrations of Compound (2) after Single-Dose Administration ([1]; Compound (1) 200 mg C-SEDDS, Time 7 h): 3.46 ng/mL
Average Plasma Concentrations of Compound (2) after Single-Dose Administration ([1]; Compound (1) 200 mg C-SEDDS, Time 8 h): 3.33 ng/mL
Average Plasma Concentrations of Compound (2) after Single-Dose Administration ([1]; Compound (1) 200 mg C-SEDDS, Time 12 h): 2.48 ng/mL
Average Plasma Concentrations of Compound (2) after Single-Dose Administration ([1]; Compound (1) 200 mg C-SEDDS, Time 15 h): 2.14 ng/mL
Average Plasma Concentrations of Compound (2) after Single-Dose Administration ([1]; Compound (1) 200 mg C-SEDDS, Time 21 h): 1.85 ng/mL
Average Plasma Concentrations of Compound (2) after Single-Dose Administration ([1]; Compound (1) 200 mg C-SEDDS, Time 24 h): 1.69 ng/mL
Average Plasma Concentrations of Compound (2) after Single-Dose Administration ([1]; Compound (1) 200 mg L-SEDDS, Time 0.5 h): 4.28 ng/mL
Average Plasma Concentrations of Compound (2) after Single-Dose Administration ([1]; Compound (1) 200 mg L-SEDDS, Time 1 h): 11.5 ng/mL
Average Plasma Concentrations of Compound (2) after Single-Dose Administration ([1]; Compound (1) 200 mg L-SEDDS, Time 1.5 h): 14.2 ng/mL
Average Plasma Concentrations of Compound (2) after Single-Dose Administration ([1]; Compound (1) 200 mg L-SEDDS, Time 2 h): 13.5 ng/mL
Average Plasma Concentrations of Compound (2) after Single-Dose Administration ([1]; Compound (1) 200 mg L-SEDDS, Time 2.5 h): 13.0 ng/mL
Average Plasma Concentrations of Compound (2) after Single-Dose Administration ([1]; Compound (1) 200 mg L-SEDDS, Time 3 h): 10.9 ng/mL
Average Plasma Concentrations of Compound (2) after Single-Dose Administration ([1]; Compound (1) 200 mg L-SEDDS, Time 4 h): 9.50 ng/mL
Average Plasma Concentrations of Compound (2) after Single-Dose Administration ([1]; Compound (1) 200 mg L-SEDDS, Time 5 h): 6.46 ng/mL
Average Plasma Concentrations of Compound (2) after Single-Dose Administration ([1]; Compound (1) 200 mg L-SEDDS, Time 6 h): 3.97 ng/mL
Average Plasma Concentrations of Compound (2) after Single-Dose Administration ([1]; Compound (1) 200 mg L-SEDDS, Time 7 h): 2.89 ng/mL
Average Plasma Concentrations of Compound (2) after Single-Dose Administration ([1]; Compound (1) 200 mg L-SEDDS, Time 8 h): 2.54 ng/mL
Average Plasma Concentrations of Compound (2) after Single-Dose Administration ([1]; Compound (1) 200 mg L-SEDDS, Time 12 h): 2.07 ng/mL
Average Plasma Concentrations of Compound (2) after Single-Dose Administration ([1]; Compound (1) 200 mg L-SEDDS, Time 15 h): 2.00 ng/mL
Average Plasma Concentrations of Compound (2) after Single-Dose Administration ([1]; Compound (1) 200 mg L-SEDDS, Time 21 h): 2.11 ng/mL
Average Plasma Concentrations of Compound (2) after Single-Dose Administration ([1]; Compound (1) 200 mg L-SEDDS, Time 24 h): 2.25 ng/mL
Average Plasma Concentrations of Compound (2) after Single-Dose Administration ([1]; Compound (1) 400 mg L-SEDDS, Time 0.5 h): 8.84 ng/mL
Average Plasma Concentrations of Compound (2) after Single-Dose Administration ([1]; Compound (1) 400 mg L-SEDDS, Time 1 h): 36.7 ng/mL
Average Plasma Concentrations of Compound (2) after Single-Dose Administration ([1]; Compound (1) 400 mg L-SEDDS, Time 1.5 h): 45.6 ng/mL
Average Plasma Concentrations of Compound (2) after Single-Dose Administration ([1]; Compound (1) 400 mg L-SEDDS, Time 2 h): 45.0 ng/mL
Average Plasma Concentrations of Compound (2) after Single-Dose Administration ([1]; Compound (1) 400 mg L-SEDDS, Time 2.5 h): 40.1 ng/mL
Average Plasma Concentrations of Compound (2) after Single-Dose Administration ([1]; Compound (1) 400 mg L-SEDDS, Time 3 h): 31.8 ng/mL
Average Plasma Concentrations of Compound (2) after Single-Dose Administration ([1]; Compound (1) 400 mg L-SEDDS, Time 4 h): 22.6 ng/mL
Average Plasma Concentrations of Compound (2) after Single-Dose Administration ([1]; Compound (1) 400 mg L-SEDDS, Time 5 h): 14.3 ng/mL
Average Plasma Concentrations of Compound (2) after Single-Dose Administration ([1]; Compound (1) 400 mg L-SEDDS, Time 6 h): 8.41 ng/mL
Average Plasma Concentrations of Compound (2) after Single-Dose Administration ([1]; Compound (1) 400 mg L-SEDDS, Time 7 h): 6.54 ng/mL
Average Plasma Concentrations of Compound (2) after Single-Dose Administration ([1]; Compound (1) 400 mg L-SEDDS, Time 8 h): 4.76 ng/mL
Average Plasma Concentrations of Compound (2) after Single-Dose Administration ([1]; Compound (1) 400 mg L-SEDDS, Time 12 h): 4.34 ng/mL
Average Plasma Concentrations of Compound (2) after Single-Dose Administration ([1]; Compound (1) 400 mg L-SEDDS, Time 15 h): 3.90 ng/mL
Average Plasma Concentrations of Compound (2) after Single-Dose Administration ([1]; Compound (1) 400 mg L-SEDDS, Time 21 h): 3.98 ng/mL
Average Plasma Concentrations of Compound (2) after Single-Dose Administration ([1]; Compound (1) 400 mg L-SEDDS, Time 24 h): 3.79 ng/mL
Judgment Trough Value ([1]; 6/CAP): C (less than IC50 (1.9 ng/mL))
Judgment Trough Value ([1]; 20/CAP): C (less than IC50 (1.9 ng/mL))
Plasma Concentration Trough Value ([1]; 20/CAP): 0.25 ng/mL
Judgment Trough Value ([1]; 100/CAP): C (less than IC50 (1.9 ng/mL))
Plasma Concentration Trough Value ([1]; 100/CAP): 1.03 ng/mL
Judgment Trough Value ([1]; 200/C-SEDDS): C (less than IC50 (1.9 ng/mL))
Plasma Concentration Trough Value ([1]; 200/C-SEDDS): 1.69 ng/mL
Plasma Concentration Trough Value ([1]; 200/L-SEDDS): 2.25 ng/mL
Plasma Concentration Trough Value ([1]; 400/L-SEDDS): 3.79 ng/mL
trough value resulting from C-SEDDS relative to the trough value resulting from L-SEDDS ([1]; single-dose administration, 200 mg): about 75%
predicted trough value for 200 mg twice daily compared to measured trough value after 400 mg once daily [2]: about twice
SMILES: Cc1cc(=O)n(-c2ccc(C[C@H](NC(=O)c3cc(F)c(NS(=O)(=O)c4ccc(NC(=O)C(C)(C)C)cc4)cc3F)C(=O)O)cn2)c(=O)n1C [Compound (2)]
Judgment Trough Value ([1]; 200/L-SEDDS): B (IC50 (1.9 ng/mL) or higher and less than IC90 (6.9 ng/mL))
Judgment Trough Value ([1]; 400/L-SEDDS): B (IC50 (1.9 ng/mL) or higher and less than IC90 (6.9 ng/mL))
